# Data reported in article PMC8151276, “An Integrated Approach toward NanoBRET Tracers for Analysis of GPCR Ligand Engagement” (Molecules, 2021).
# What was measured:
# Assay type in all cases: binding
# [1] = target: T1, ADRB1 (Homo sapiens, UniProt P08588); experiment: NanoBRET screen HiBiT-ADRB1 in HEK293; conditions: ADRB1
# T1 construct: purchased Promega (in-house HiBiT-GPCR construct library, NanoBRET)
# [2] = target: T2, HTR4 (Homo sapiens, UniProt Q13639); experiment: NanoBRET screen HiBiT-HTR4 in HEK293; conditions: HTR4
# T2 construct: purchased Promega (in-house HiBiT-GPCR construct library, NanoBRET)
# T2 sequence (Q13639 whole entry): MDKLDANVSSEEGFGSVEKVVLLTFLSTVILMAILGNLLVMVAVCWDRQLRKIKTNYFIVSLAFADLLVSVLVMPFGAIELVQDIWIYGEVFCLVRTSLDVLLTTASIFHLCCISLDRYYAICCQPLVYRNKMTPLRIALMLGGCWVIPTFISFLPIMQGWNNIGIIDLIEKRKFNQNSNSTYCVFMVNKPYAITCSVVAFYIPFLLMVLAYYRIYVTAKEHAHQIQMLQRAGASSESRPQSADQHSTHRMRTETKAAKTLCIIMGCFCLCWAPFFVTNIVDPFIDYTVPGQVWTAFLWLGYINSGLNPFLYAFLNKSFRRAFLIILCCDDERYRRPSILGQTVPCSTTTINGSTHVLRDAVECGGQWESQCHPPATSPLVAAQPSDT
# Experimental: (§1) Each tracer candidate was screened across the entire library of HiBiT-GPCR constructs using NanoBRET as the detection modality. As depicted in Figure 4A, the specificity of interactions was evaluated through decrease in BRET due to competitive displacement of a bound tracer by excess parental compound. Each tracer was analyzed for binding to each HiBiT-GPCR fusion in the absence and in the presence of competing parental compound. Briefly, HEK293 cells were transfected with HiBiT-GPCR constructs diluted into promoterless DNA to reduce expression and maximize translocation to the cell surface. Each tracer candidate was then screened at concentrations of 1 μM and 0.1 μM across cells expressing these fusions. Cells were treated for 1.5 h with tracer either alone or in the presence of 20 μM competing parental compound (i.e., control). BRET was measured upon addition of purified LgBiT and subsequent complementation with HiBiT genetically fused to a GPCR. The specificity of interactions was assessed through a decrease in BRET signal due to competitive displacement of the bound tracer. To further gauge the robustness of these interactions, the fold response over the control (i.e., BRETtracer/BRETcontrol) was calculated. We chose a 1.5-fold response, which translates to ≥7-fold signal over noise as the minimal threshold required to score an interaction as positive. […]. Below we highlight the screening results obtained for our exemplary fluorescent tracers based on Clozapine, Amitriptyline and AZD1283.
# (§2) HiBiT-GPCR DNA constructs were diluted in 10 mM Tris pH 8 to a final concentration of 0.01 μg/μL, arrayed in 96-well plates and stored at −20 °C. For transfection, HEK293 cells were suspended in Opti-MEM (without phenol red) supplemented with 2% fetal bovine serum (Seradigm) and 100 units/mL penicillin–streptomycin (Gibco) at a final concentration of 220,000 cells/mL and dispensed into white 96-well plates at 90 μL/well. Subsequent transfections and screens were carried using an Agilent Bravo Automated Liquid Handling Platform. First, the 96-well HiBiT DNA arrays were diluted 25-fold in Opti-MEM (without serum or phenol red) to a final concentration of 0.0004 μg/μL and 20 μL of the diluted DNAs were transferred into new 96-well plates. Next, promoterless carrier DNA (1 μg/μL) was diluted 25-fold (0.04 μg/μL) and then dispensed into the diluted arrays at 20 μL/well. Following brief mixing, Viafect transfection reagent (Promega) diluted 16-fold into Opti-MEM was dispensed into the plates at 40 μL/well. After mixing by pipetting, plates were incubated for 10 min on the pipetting station deck. The DNA-transfection reagent complexes were then added to plates containing cells. To facilitate the screen, 10 μL of DNA-transfection reagent complexes were added in duplicates to the top 4 and bottom 4 rows, resulting in two identical 48-well arrays per plate. Plates with transfected cells were incubated for 18–20 h at 37 °C/5% CO2. A screen of each tracer across the entire library using two different concentrations requires duplicate plates of transfected cells. Depending on the number of tracers being screened, transfections can be scaled up using the same ratios. The next day, for each tracer, four 20× screening solutions in tracer dilution buffer (Promega) were prepared: two duplicates at final concentration of 20 μM and two duplicates at a final concentration of 2 μM. A competing unmodified compound was added to one of each duplicate at a final concentration of 400 μM. The four resulting solutions were diluted 4-fold in Opti-MEM without serum or phenol red to generate 5× solutions (5 µM and 0.5 µM tracer +/− 100 μM competing compound). To screen the library, a BioTek MultiFlo FX liquid dispenser was used to dispense 22.5 µL of tracer solution to the top 4 rows and 22.5 µL tracer + competing compound solution to the 4 bottom rows. Plates were briefly mixed on an orbital shaker and incubated for 1.5 h at room temperature. […]
# [3] = target: T3, GRM1 (Homo sapiens, UniProt Q13255); experiment: NanoBRET screen HiBiT-GRM1 in HEK293; conditions: GRM1
# T3 construct: purchased Promega (in-house HiBiT-GPCR construct library, NanoBRET)
# T3 sequence (Q13255 19-1194): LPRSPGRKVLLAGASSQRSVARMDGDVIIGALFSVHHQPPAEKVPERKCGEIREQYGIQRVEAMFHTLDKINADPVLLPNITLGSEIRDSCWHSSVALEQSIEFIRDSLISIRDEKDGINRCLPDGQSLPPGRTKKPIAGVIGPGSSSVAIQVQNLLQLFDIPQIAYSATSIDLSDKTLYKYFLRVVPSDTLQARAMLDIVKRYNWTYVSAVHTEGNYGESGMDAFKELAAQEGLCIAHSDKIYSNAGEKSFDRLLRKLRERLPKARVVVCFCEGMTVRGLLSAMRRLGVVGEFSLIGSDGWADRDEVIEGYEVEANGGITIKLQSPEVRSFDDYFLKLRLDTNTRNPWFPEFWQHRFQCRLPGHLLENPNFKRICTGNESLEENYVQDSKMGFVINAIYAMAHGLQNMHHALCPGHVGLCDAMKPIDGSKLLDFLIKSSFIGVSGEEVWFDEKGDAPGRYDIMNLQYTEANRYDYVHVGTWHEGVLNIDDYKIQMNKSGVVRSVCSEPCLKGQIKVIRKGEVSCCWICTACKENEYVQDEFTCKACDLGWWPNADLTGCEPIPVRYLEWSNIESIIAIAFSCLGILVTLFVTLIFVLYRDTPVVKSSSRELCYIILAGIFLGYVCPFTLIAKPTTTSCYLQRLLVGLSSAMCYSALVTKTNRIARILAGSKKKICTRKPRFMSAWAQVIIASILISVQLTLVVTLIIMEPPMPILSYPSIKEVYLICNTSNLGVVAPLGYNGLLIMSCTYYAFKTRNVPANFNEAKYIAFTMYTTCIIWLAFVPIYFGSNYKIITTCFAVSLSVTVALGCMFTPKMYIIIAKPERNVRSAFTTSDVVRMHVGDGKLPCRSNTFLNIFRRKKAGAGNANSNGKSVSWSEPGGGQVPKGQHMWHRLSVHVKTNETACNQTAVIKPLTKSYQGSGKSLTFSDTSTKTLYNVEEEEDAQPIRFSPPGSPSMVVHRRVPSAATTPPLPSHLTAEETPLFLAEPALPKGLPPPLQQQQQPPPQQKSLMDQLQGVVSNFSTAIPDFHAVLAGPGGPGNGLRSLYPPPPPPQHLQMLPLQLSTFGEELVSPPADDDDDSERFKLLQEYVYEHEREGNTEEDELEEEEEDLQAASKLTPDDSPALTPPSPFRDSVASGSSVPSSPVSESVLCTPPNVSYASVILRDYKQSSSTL
# Experimental: as §1, §2
# T1 sequence (P08588 whole entry): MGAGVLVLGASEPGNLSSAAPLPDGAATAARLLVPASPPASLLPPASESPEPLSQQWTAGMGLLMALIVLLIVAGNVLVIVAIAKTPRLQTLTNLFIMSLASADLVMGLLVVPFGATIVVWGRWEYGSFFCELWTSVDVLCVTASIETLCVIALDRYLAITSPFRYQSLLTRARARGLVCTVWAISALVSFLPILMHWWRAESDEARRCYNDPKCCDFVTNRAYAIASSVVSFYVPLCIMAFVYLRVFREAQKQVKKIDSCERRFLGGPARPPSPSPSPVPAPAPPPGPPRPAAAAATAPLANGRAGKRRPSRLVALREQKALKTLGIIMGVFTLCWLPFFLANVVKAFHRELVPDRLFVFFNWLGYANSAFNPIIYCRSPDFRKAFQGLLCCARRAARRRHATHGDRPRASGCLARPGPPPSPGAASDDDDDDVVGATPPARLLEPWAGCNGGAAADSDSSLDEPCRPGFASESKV
SMILES,NanoBRET Fold Response ([1]; tracer 0.1μM),NanoBRET Fold Response ([1]; tracer 1μM),NanoBRET Fold Response ([2]; tracer 0.1μM),NanoBRET Fold Response ([2]; tracer 1μM),NanoBRET Fold Response ([3]; tracer 0.1μM),NanoBRET Fold Response ([3]; tracer 1μM),also measured
CN1CCN(C2=Nc3cc(Cl)ccc3Nc3ccc(CNC(=O)CCOCCOCCOCCOCCNC(=O)CCc4ccc5n4[B-](F)(F)[N+]4=C(c6ccc[nH]6)C=CC4=C5)cc32)CC1 [Clozapine-b-2-NB590],–,–,–,–,–,–,NanoBRET Fold Response ([1]; 0.1μM tracer): 0.99; NanoBRET Fold Response ([1]; 1μM tracer): 1.02; NanoBRET Fold Response ([2]; 0.1μM tracer): 0.98; NanoBRET Fold Response ([2]; 1μM tracer): 0.99; NanoBRET Fold Response ([3]; 0.1μM tracer): 1.05; NanoBRET Fold Response ([3]; 1μM tracer): 0.74
CN1CCN(C2=Nc3cc(Cl)ccc3N(CC(=O)NCCOCCOCCOCCOCCNC(=O)CCc3ccc4n3[B-](F)(F)[N+]3=C(c5ccc[nH]5)C=CC3=C4)c3ccccc32)CC1 [Clozapine-c-2-NB590],–,–,–,–,–,–,NanoBRET Fold Response ([1]; 0.1μM tracer): 1.02; NanoBRET Fold Response ([1]; 1μM tracer): 0.94; NanoBRET Fold Response ([2]; 0.1μM tracer): 1.02; NanoBRET Fold Response ([2]; 1μM tracer): 1.07; NanoBRET Fold Response ([3]; 0.1μM tracer): 0.99; NanoBRET Fold Response ([3]; 1μM tracer): 1.00
O=C(CCOCCOCCOCCOCCNC(=O)CCc1ccc2n1[B-](F)(F)[N+]1=C(c3ccc[nH]3)C=CC1=C2)NCCCN1CCN(C2=Nc3ccccc3Oc3ccc(Cl)cc32)CC1 [Loxapine-a-2-NB590],0.97,0.97,1.02,1.04,0.93,0.59,–
COc1ccccc1N1CCN(CCCCN2C(=O)c3ccc(CNC(=O)CCOCCOCCOCCOCCNC(=O)CCc4ccc5n4[B-](F)(F)[N+]4=C(c6ccc[nH]6)C=CC4=C5)cc3C2=O)CC1 [NAN-190-2-NB590],–,–,–,–,0.35,0.92,–
COc1ccccc1N1CCN(CCCCN2C(=O)c3ccc(CNC(=O)CCOCCNC(=O)c4ccc(CNC(=O)CCc5ccc6n5[B-](F)(F)[N+]5=C(c7ccc[nH]7)C=CC5=C6)cc4)cc3C2=O)CC1 [NAN-190-3-NB590],–,–,1.00,1.03,1.03,1.12,–
O=C(CCc1ccc2n1[B-](F)(F)[N+]1=C(c3ccc[nH]3)C=CC1=C2)NCc1ccc(C(=O)NCCOCCC(=O)N[C@@H]2CC[C@@]3(O)[C@H]4Cc5ccc(O)c6c5[C@@]3(CCN4CC3CC3)[C@H]2O6)cc1 [Naltrexone-3-NB590],1.34,0.83,0.97,1.05,0.93,0.75,–
Cc1cc2c(s1)Nc1ccccc1N=C2N1CCN(CCCNC(=O)CCOCCOCCOCCOCCNC(=O)CCc2ccc3n2[B-](F)(F)[N+]2=C(c4ccc[nH]4)C=CC2=C3)CC1 [Olanzapine-a-2-NB590],1.01,0.97,1.02,1.02,0.89,1.26,–
O=C(CCc1ccc2n1[B-](F)(F)[N+]1=C(c3ccc[nH]3)C=CC1=C2)NCc1ccc(C(=O)NCCOCCOCCNCC(O)COc2cccc3ccccc23)cc1 (stereo not shown) [Propranolol-3-NB590],–,–,–,–,–,–,NanoBRET Fold Response ([2]; 0.1μM): 1.26; NanoBRET Fold Response ([2]; 1μM): 1.41; NanoBRET Fold Response ([3]; 0.1μM): 0.72; NanoBRET Fold Response ([3]; 1μM): 0.69
O=C(CCc1ccc2n1[B-](F)(F)[N+]1=C(c3ccc[nH]3)C=CC1=C2)NCCOCCOCCNC(=O)OCCOCCN1CCN(C2=Nc3ccccc3Sc3ccccc32)CC1 [Quetiapine-a-2-NB590],1.00,0.91,0.98,1.00,0.74,1.00,–
